Reference: BindingDB's records for doi:10.1021/bi9016186 (Weill Cornell Medical College, 2010)

Molecular target: T1, Dihydrolipoyl dehydrogenase (Mycobacterium tuberculosis (strain CDC 1551 / Oshkosh), UniProt P9WHH8)
T1 sequence (P9WHH8 whole entry): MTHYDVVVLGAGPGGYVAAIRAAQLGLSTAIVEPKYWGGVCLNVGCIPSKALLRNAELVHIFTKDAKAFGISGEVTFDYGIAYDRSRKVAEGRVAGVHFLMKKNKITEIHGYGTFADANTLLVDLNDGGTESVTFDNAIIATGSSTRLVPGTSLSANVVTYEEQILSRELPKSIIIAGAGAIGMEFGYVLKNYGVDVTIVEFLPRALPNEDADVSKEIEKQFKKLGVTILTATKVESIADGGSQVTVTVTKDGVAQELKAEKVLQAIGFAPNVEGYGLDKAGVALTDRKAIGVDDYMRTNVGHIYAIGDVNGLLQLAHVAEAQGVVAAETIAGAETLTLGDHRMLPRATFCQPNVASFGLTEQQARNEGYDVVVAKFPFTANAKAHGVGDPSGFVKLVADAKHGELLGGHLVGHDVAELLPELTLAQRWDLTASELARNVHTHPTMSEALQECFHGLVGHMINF
Experiment: Enzymatic Assay

| Structure (SMILES) | IC50 [µM] |
| --- | --- |
| COc1cccc(C(=O)N2CCC3(CC2)C(=O)N(CC(=O)NCCc2ccc(C(F)(F)F)cc2)CN3c2ccccc2)c1 [Triazaspirobenzyl, 8] | > 100 |
| COc1ccc(C(=O)N2CCC3(CC2)C(=O)N(CC(=O)NCCc2ccc(C(F)(F)F)cc2)CN3c2ccccc2)c(OC)c1 [Triazaspirobenzyl, 4] | 2 |
